Assay results from patent US20220296595A1, “CDK INHIBITORS” (QILU REGOR THERAPEUTICS INC., priority 2019, published 2022).
Where two headings read alike, the source gives them in different places.

Key:
[1] = molecular target: T1, CDK4/CyclinD1 (Homo sapiens, UniProt P11802); assay: Assay for inhibition of CDK4/CyclinD1 (Caliper microfluidic kinase assay); type: biochemical
T1 construct: purchased Thermofisher PR8064A
Method: The CDK4 enzyme assay for IC50 determination was performed as follows. Microfluidic kinase detection technology (Caliper) was used to monitor the phosphorylation of peptide substrate by CDK4/CyclinD1. The total reaction volume was 15 μL containing buffer A (100 mM HEPES (pH 7.5), 0.1% BSA, 0.01% Triton X-100, 1 mM DTT, 10 mM MgCl2, 10 μM Sodium Orthovanadate, 10 μM Beta-Glycerophosphate), 200 μM ATP, 1 nM CDK4/CyclinD1 (Thermofisher, PR8064A), 1 μM FL-34 (5-FAM-[…]), and the test compound at appropriate dilutions in DMSO. All components were added to the 384-well plate (Corning, 4514), and incubated at Room Temperature for 3 hours. The reaction was terminated by addition of 15 μL Stop Buffer (180 mM HEPES (pH 7.5), 20 mM EDTA, Coating-3 reagent (PerkinElmer, 760050)). The plate was then loaded on Caliper EZ Reader (EZ Reader II, PerkinElmer, HD-4HYSG2772), and the reaction mixtures including substrate and product were sipped into the microfluidic chip for separation and detection. The IC50 values of the test compound were determined by fitting the inhibition curves by 4 parameter sigmoidal dose-response model using the Xlfit5/GraphPad Prism 5 software.

[2] = molecular target: T2, CDK2/CyclinE1 (Homo sapiens, UniProt P24941); assay: Assay for inhibition of CDK2/CyclinE1 (Caliper microfluidic kinase assay); type: biochemical; conditions: read-out: CDK2 IC50
T2 construct: purchased SignalChem C29-18G
Method: The CDK2 enzyme assay for IC50 determination was performed as follows. Microfluidic kinase detection technology (Caliper) was used to monitor the phosphorylation of peptide substrate by CDK2/CyclinE1. The total reaction volume was 15 μL containing buffer A (100 mM HEPES (pH 7.5), 0.1% BSA, 0.01% Triton X-100, 1 mM DTT, 10 mM MgCl2, 10 μM Sodium Orthovanadate, 10 μM Beta-Glycerophosphate), 100 μM ATP, 5 nM CDK2/CyclinE1 (SignalChem, C29-18G), 5 μM FL-18 (5-FAM-QSPKKG-NH2), and the test compound at appropriate dilutions in DMSO. All components were added to the 384-well plate (Corning, 4514), and incubate at Room Temperature for 3 hours. The reaction was terminated by addition of 15 μL Stop Buffer (180 mM HEPES (pH 7.5), 20 mM EDTA, Coating-3 reagent (PerkinElmer, 760050)). The plate was loaded on Caliper EZ Reader (EZ Reader II, PerkinElmer, HD-4HYSG2772), and the reaction mixtures including substrate and product were sipped into the microfluidic chip for separation and detection. The IC50 values of the test compound were determined by fitting the inhibition curves by 4 parameter sigmoidal dose-response model using the Xlfit5/GraphPad Prism 5 software.

T1 sequence (P11802 whole entry): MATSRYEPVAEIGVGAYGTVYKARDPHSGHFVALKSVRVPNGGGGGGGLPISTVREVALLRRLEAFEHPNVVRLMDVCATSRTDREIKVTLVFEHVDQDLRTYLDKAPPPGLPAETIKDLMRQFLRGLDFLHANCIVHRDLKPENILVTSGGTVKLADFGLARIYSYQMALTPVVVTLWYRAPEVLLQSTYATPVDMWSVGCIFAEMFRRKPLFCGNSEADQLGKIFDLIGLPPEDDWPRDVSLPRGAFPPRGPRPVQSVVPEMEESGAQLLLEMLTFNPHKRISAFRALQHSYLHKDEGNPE
T1 sequence (P24385 whole entry partner): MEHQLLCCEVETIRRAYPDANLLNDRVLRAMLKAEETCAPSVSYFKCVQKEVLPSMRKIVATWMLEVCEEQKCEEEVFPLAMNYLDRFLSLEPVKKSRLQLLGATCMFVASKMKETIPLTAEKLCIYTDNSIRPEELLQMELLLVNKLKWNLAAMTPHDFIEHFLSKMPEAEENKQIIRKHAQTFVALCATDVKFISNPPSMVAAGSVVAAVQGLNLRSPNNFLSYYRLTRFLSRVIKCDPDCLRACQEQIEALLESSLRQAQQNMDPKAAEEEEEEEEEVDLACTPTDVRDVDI

| SMILES | IC50 ([1]; CDK4/CyclinD1, 200 μM ATP) | IC50 ([2]; CDK2/CyclinE1, 100 μM ATP) | IC50 ([1]; CDK4/CyclinD1) | IC50 ([2]; CDK2/CyclinE1) |
| --- | --- | --- | --- | --- |
| CC(C)c1cnc2cnc(-c3ccnc(Nc4ccc(N5CCNCC5=O)cn4)n3)cn12 [Synthetic Example 143] | 10 to 100 nM | > 1000 nM | – | – |
| Cc1nn2ccc(-c3ccnc(Nc4ccc(S(N)(=O)=O)nc4)n3)cc2c1C(C)C [compound 182] | 10 to 100 nM | < 10 nM | – | – |
| CC1(C)COc2c(F)cc(-c3ccnc(Nc4ccc(N5CCCC(N)C5=O)nc4)n3)cc21 (centres unmarked) [compound 264] | < 10 nM | 10 to 100 nM | – | – |
| CC(C)n1cnc2c1CN(c1nc(Nc3ccc(N4CCNCC4=O)cc3F)ncc1F)CC2 [compound 256] | < 10 nM | < 10 nM | – | – |
| CCN1CCN(c2ccc(Nc3ncc(F)c(-c4cc5c(nc(C)n5C(C)C)c(OC)n4)n3)nc2)CC1=O [compound 105] | – | – | 10 to 100 nM | > 1000 nM |
| COc1nc(-c2nc(Nc3ccc(N4CCOC4=O)cn3)ncc2F)cc2c1nc(C)n2C(C)C [compound 85] | – | – | 10 to 100 nM | > 1000 nM |
| COc1nc(-c2ccnc(Nc3ccc4c(n3)CCN(C(=O)CO)C4)n2)cc2c1ncn2C(C)C [compound 141] | 10 to 100 nM | > 1000 nM | – | – |
| COc1nc(-c2ccnc(Nc3ccc4c(n3)CCN(C(=O)CC#N)C4)n2)cc2c1ncn2C(C)C [compound 142] | 10 to 100 nM | > 1000 nM | – | – |
| COc1nc(-c2nc(Nc3ccc(N4CCC5(CCNC5=O)CC4)cn3)ncc2F)cc2c1nc(C)n2C(C)C [compound 90] | – | – | 10 to 100 nM | > 1000 nM |
| CC(C)(C)c1cnn2ccc(-c3ccnc(Nc4ccc(N5CCCC(N)C5=O)cc4F)n3)cc12 (centres unmarked) [compound 232] | < 10 nM | < 10 nM | – | – |
| CC(C)n1cnc2c(F)nc(-c3ccnc(Nc4ccc(N5CCC(N(C)C)CC5=O)cc4F)n3)cc21 (centres unmarked) [compound 305] | < 10 nM | < 10 nM | – | – |
| CC(C)c1cnn2ccc(-c3ccnc(Nc4ccc(N5CCNCC5=O)cc4O)n3)cc12 [compound 188] | 10 to 100 nM | 10 to 100 nM | – | – |
| CC(C)c1cnn2ccc(-c3ccnc(Nc4ccc(N5CCC(N(C)C)CC5=O)cc4F)n3)cc12 (centres unmarked) [compound 180] | < 10 nM | < 10 nM | – | – |
| CCN1CCN(Cc2ccc(Nc3ncc(F)c(N4CCc5ncn(C(C)C)c5C4)n3)nc2)CC1 [compound 251] | 10 to 100 nM | > 1000 nM | – | – |
| CNC1CN(C(=O)c2ccc(Nc3nccc(-c4ccn5ncc(C(C)C)c5c4)n3)cc2)C1 [compound 190] | < 10 nM | 10 to 100 nM | – | – |
| CC(C)c1cnn2ccc(-c3ccnc(Nc4ccc(C(=O)N5CCC(N(C)C)C5)cc4F)n3)cc12 (centres unmarked) [compound 152] | 10 to 100 nM | 10 to 100 nM | – | – |
| CC(C)c1cnn2ccc(-c3ccnc(Nc4ccc(C(=O)N5CC(N(C)C)C5)cc4)n3)cc12 [compound 154] | < 10 nM | < 10 nM | – | – |
| CC(C)c1cnn2ccc(-c3ccnc(Nc4ccc(N5CCC(C)(N)CC5=O)cc4Cl)n3)cc12 (centres unmarked) [compound 212] | < 10 nM | < 10 nM | – | – |
| CC(C)c1cnn2ccc(-c3ccnc(Nc4ccc(C(=O)N5CCC(O)C5)cc4)n3)cc12 (centres unmarked) [compound 150] | < 10 nM | < 10 nM | – | – |
